By EC50 is commonly meant the concentration that produces a half-maximal response.

The source made the active and inactive calls.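 Rule for the calls: active = EC50 at or below 10 µM; inactive = EC50 above 10 µM.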

The test concerns the target Nuclear hormone receptor DAF-12 (Heterodera glycines). In words: hgDAF-12 reporter activation EC50 – cell-based, luminescence, HEK293, dose response (AID 743059).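 Note: agonist potency for compounds that raise hgDAF-12 reporter luminescence.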 The conditions noted are these: HEK293 hgDAF-12 reporter, luciferase luminescence.
`CCCSc1nsc(NC(=O)CC)n1`: the EC50 was > 67.5 µM (inactive).

For `Oc1cccc(/C=C/c2ccc3cccc(O)c3n2)c1`, the EC50 was > 67.6 µM (inactive).

As for `Clc1ccc(Nc2ccc3ccccc3n2)cc1`, the EC50 is > 67.5 µM (inactive).

Take `N#C/C(=N\Nc1ccc(Cl)cc1)C(=N)N1CCCCCC1`: the EC50 was > 67.5 µM (inactive).

`Cc1ccc(S(=O)(=O)/N=C(/NC(=S)Nc2ccccc2)c2ccccc2)cc1`: the EC50 was > 67.5 µM (inactive).

As to `Oc1[nH]c2ccccc2c1N=Nc1ccccc1F`, the EC50 was > 67.6 µM (inactive).

Consider `CSc1ccc(/C=N/Nc2ccc(Cl)c(C(=O)O)c2)cc1`, for which the EC50 was > 67.5 µM (inactive).

In the case of `Cc1cccc(/C=C\c2nc3ccccc3c(=O)[nH]2)c1`, the EC50 is > 67.5 µM (inactive).

As to `CCOC(=O)c1c(C)oc2c1cc(O)c1ccccc12`, the EC50 is > 67.5 µM (inactive).

In the case of `Cc1ccc(OCc2ccc(Br)cc2)c([N+](=O)[O-])n1`, the EC50 is > 67.5 µM (inactive).

With `c1cncc(-c2noc(-c3ccc4ccccc4c3)n2)c1`, the EC50 is > 67.5 µM (inactive).

For the compound `O=C(CC(=O)c1cccs1)c1ccncc1`, the EC50 was > 67.5 µM (inactive).

`Cc1cc(NC(=O)CSc2nc3c(cc2C#N)CCC3)no1`: the EC50 was > 67.6 µM (inactive).

For `Brc1ccc(-c2noc(-c3ccccn3)n2)o1`, the EC50 was > 67.5 µM (inactive).

Turning to `COc1cccc(-c2nc3ccccc3s2)c1`, the EC50 was > 67.5 µM (inactive).

As for `Cc1ccc(-c2onc3ccc(C(=O)O)cc23)cc1`, the EC50 was > 67.6 µM (inactive).

As to `N=C1/C(=C/c2ccc(OCc3ccccc3F)cc2)C(=O)N=C2SC(CC(=O)N3CCOCC3)=NN12`, the EC50 was > 67.5 µM (inactive).

As to `Cc1cccc(N=Nc2cnc(N)s2)c1`, the EC50 was > 67.6 µM (inactive).

In the case of `COc1ccc(Oc2cnn(-c3ccccc3)c(=O)c2Br)cc1`, the EC50 is > 67.5 µM (inactive).

On to `CCOc1ccc2nc(NC(=O)Nc3cccs3)sc2c1`, for which the EC50 was > 67.5 µM (inactive).

On to `Cc1cc2ncc(-c3ccccc3)nc2cc1C`, for which the EC50 was > 67.5 µM (inactive).

As to `O=C(NCCc1ccccc1)c1cc(-c2ccco2)on1`, the EC50 is 7.6 µM.

For the compound `Cc1ccc(/C=N/NC(=O)c2ccccn2)s1`, the EC50 was > 67.6 µM (inactive).

As for `COc1ccccc1-c1noc(-c2cccs2)n1`, the EC50 is > 67.5 µM (inactive).

In the case of `CN(C)c1ccc(N=Nc2nccs2)cc1`, the EC50 was > 67.4 µM (inactive).

On to `CN1CCN(/C=N/c2sc3c(c2C#N)CCCCC3)CC1`, for which the EC50 is > 67.5 µM (inactive).

Take `Cc1ccc2nc(C)/c(=N\O)c(C)nc2c1`: the EC50 was > 67.6 µM (inactive).

With `N=C1c2ccccc2CN1CC(=O)c1ccccc1`, the EC50 is > 67.6 µM (inactive).

With `c1csc(-c2nnc(-c3ccc(N4CCOCC4)cc3)o2)c1`, the EC50 is > 67.5 µM (inactive).

In the case of `Cc1ccc2nc(-c3ccccn3)oc2c1`, the EC50 is > 67.6 µM (inactive).

Turning to `OCc1ccc(N=Nc2ccccc2)cc1`, the EC50 was > 67.5 µM (inactive).

For the compound `CCS(=O)(=O)Nc1cc(-c2nc3cccnc3s2)ccc1C`, the EC50 was > 67.5 µM (inactive).

Take `Cc1cc(NC(=O)c2nn3cccnc3c2Cl)no1`: the EC50 was > 67.5 µM (inactive).

Regarding `ON=C(CCc1ccccc1)c1ccccc1`, the EC50 is > 67.5 µM (inactive).

As to `Nc1nc(Nc2ccc(Cl)cc2)nc2ccccc12`, the EC50 is > 67.5 µM (inactive).

On to `CC(=Nc1ccccc1)c1sc2ccccc2c1O`, for which the EC50 is > 67.6 µM (inactive).

On to `CN(C)c1cccc(-c2cnc(N3CCC(C(N)=O)CC3)s2)c1`, for which the EC50 was > 67.5 µM (inactive).

Consider `Cc1ccc(N/C=C(/C#N)c2ccsc2)cc1C`, for which the EC50 is > 67.5 µM (inactive).

As to `CCN(CC)S(=O)(=O)c1ccc(C(=O)OCC(=O)Nc2ccc(-c3nc4ccc(C)cc4s3)cc2)cc1`, the EC50 is > 67.5 µM (inactive).

As for `CC/C(=N\NC(=O)c1ccoc1C)c1ccc(C)o1`, the EC50 is > 67.5 µM (inactive).

Regarding `Cc1ccc(-n2ncc3ccccc3c2=O)cc1Cl`, the EC50 was > 67.6 µM (inactive).

As for `CN(C)c1ccc(C(C#N)c2ccccc2)nn1` (configuration not stated), the EC50 is > 67.5 µM (inactive).

With `Cn1c(SCc2ccccc2F)nc2cccnc21`, the EC50 is > 67.5 µM (inactive).

As to `CCc1sc(C(=O)Nc2ncccc2O)cc1C`, the EC50 result is “inactive”.

On to `Cc1cc(C(=O)CSc2ncccn2)c(C)n1Cc1ccco1`, for which the EC50 is > 67.5 µM (inactive).

On to `Cc1c(C(=O)Nc2nccs2)oc2ccccc12`, for which the EC50 was > 67.6 µM (inactive).

As to `COc1ccc(Nc2nccc(-c3cccc(N)c3)n2)cc1`, the EC50 was > 67.5 µM (inactive).

Turning to `Oc1ccccc1-c1cc(-c2ccc(Cl)cc2)n[nH]1`, the EC50 is > 67.5 µM (inactive).

As to `NC(=Nc1ccccc1)NC(=O)c1nc(Cl)c(N)nc1N`, the EC50 is > 67.5 µM (inactive).

Take `COC1=C/C(=C/c2c(N)n3nc(-c4ccc(C)cc4)sc3nc2=O)C=CC1=O`: the EC50 was > 67.5 µM (inactive).

For `COc1ccccc1/C=N\N=C(\N)c1ccccn1`, the EC50 was > 67.6 µM (inactive).

For the compound `C=CCN1C=CC(=C/C=C(/C#N)C(=O)OCC)C=C1`, the EC50 is > 67.5 µM (inactive).

`Cc1nn(-c2nnc(NC3CCCCC3)nn2)c(C)c1Br`: the EC50 is > 67.6 µM (inactive).

`CC(=Nc1ccc(Cl)cc1N)c1c(O)cc(C)oc1=O`: the EC50 was > 67.6 µM (inactive).

As for `Cc1cc(OCc2cc(C(=O)NCc3cc(C(C)C)no3)no2)cc(C)c1Cl`, the EC50 is > 67.5 µM (inactive).

As to `C/C(=C\C(=O)c1sccc1Cl)N(C)C`, the EC50 is > 67.6 µM (inactive).

On to `Cc1ccc(SCCN2CCC(C)CCC2=O)cc1` (configuration not stated), for which the EC50 was > 67.5 µM (inactive).

Take `Oc1ccc(N=Nc2ccc3ccccc3c2)cc1`: the EC50 is > 67.5 µM (inactive).

On to `Cc1ccc(CN2CCN(CC(C)C)C(CCO)C2)s1` (configuration not stated), for which the EC50 was > 67.6 µM (inactive).

`CCCCSc1ncnc2c1ncn2C1CCCCO1` (configuration not stated): the EC50 was > 67.4 µM (inactive).

On to `O=c1[nH]c(=O)n(C2CC(O)C(CO)O2)cc1I` (configuration not stated), for which the EC50 was > 67.6 µM (inactive).

Regarding `Brc1ccc(-c2noc(-c3ccccc3)n2)o1`, the EC50 is > 67.6 µM (inactive).

For `CN(C)c1ccc(Nc2nc(-c3cccnc3)cs2)cc1`, the EC50 was > 67.5 µM (inactive).

With `COC1=C/C(=C/c2c(O)c(C#N)c3ccccn23)C=CC1=O`, the EC50 is > 67.5 µM (inactive).

For `S=C(c1ccc(-c2ccc(Cl)cc2)o1)N1CCCCC1`, the EC50 is > 67.5 µM (inactive).

As to `Cc1cc2nc(-c3cccnc3SCC(=O)NCc3ccco3)[nH]c2cc1C`, the EC50 was > 67.6 µM (inactive).

Take `Cc1c(C(=O)OC2CCC(C)CC2)[nH]c2c1C(=O)CCC2` (configuration not stated): the EC50 was > 67.5 µM (inactive).

In the case of `COCC1CCN(Cc2nc(-c3cccs3)no2)C1` (configuration not stated), the EC50 is > 67.5 µM (inactive).

Regarding `CCCn1c(=NC(=O)c2ccco2)c(C(=O)OCC)cc2c(=O)n3ccccc3nc21`, the EC50 is > 67.5 µM (inactive).

As for `O=c1c2ccccc2nnn1CCc1ccccc1`, the EC50 is > 67.4 µM (inactive).

Consider `Cn1c(NC(=O)CCc2ccccc2)cc(=O)n(C)c1=O`, for which the EC50 is > 67.5 µM (inactive).

`Cc1ccc(/C(N)=N/OC(=O)c2ccco2)cc1`: the EC50 is > 67.5 µM (inactive).

In the case of `C=CCN1C(=O)[C@@H](CC(=O)N2CCSCC2)[C@]2(C(=O)OC)CCCCC=C12`, the EC50 was > 67.5 µM (inactive).

For the compound `CN(C)CCNc1ncnc2c1ncn2[C@H]1CN(Cc2cccnc2)C[C@@H](CO)O1`, the EC50 was > 67.5 µM (inactive).

For the compound `O=C(CCCc1ccccc1)NC12CC3CC(CC(C3)C1)C2`, the EC50 was > 67.5 µM (inactive).

Turning to `O=C(NCCCn1ccnc1)c1cc(-c2ccccc2)on1`, the EC50 was 9.16 µM.

Consider `c1ccc([C@H]2CN3C(=N2)Sc2ccccc23)cc1`, for which the EC50 was > 67.1 µM (inactive).

For the compound `Cc1ccc2c(c1)N=C(c1ccccc1)CC(C(Cl)Cl)=N2`, the EC50 is > 67.5 µM (inactive).

Regarding `Cc1nn(-c2ccccc2)c(Cl)c1/C=N/Nc1ccc(Cl)c(C(=O)O)c1`, the EC50 is > 67.5 µM (inactive).

`Nc1c(OS(=O)(=O)c2ccccc2)cccc1OS(=O)(=O)c1ccccc1`: the EC50 is > 67.5 µM (inactive).

For `Cc1ccc(-c2nc(-c3ccncc3)no2)cc1C`, the EC50 is > 67.5 µM (inactive).

In the case of `CCCS(=O)(=O)NCc1cn2c(C)csc2n1`, the EC50 was > 67.5 µM (inactive).

Turning to `O=C1/C(=C\c2cccs2)Sc2ccc3ccccc3c21`, the EC50 was > 67.5 µM (inactive).

As to `OC(c1ccccc1)c1nc(-c2cnc3ccccc3c2)cs1` (configuration not stated), the EC50 is > 67.6 µM (inactive).

For `Cc1csc(NC(=O)c2ccc3ccccc3n2)n1`, the EC50 was > 67.6 µM (inactive).

As to `COc1ccc2oc3cc(NCCN(C)C)ccc3c(=O)c2c1`, the EC50 result is “inactive”.

Consider `Clc1ccccc1Nc1nc2ccccc2o1`, for which the EC50 was > 67.6 µM (inactive).

Consider `Cc1ccc(/C(N)=N/OC(=O)c2cccs2)cc1`, for which the EC50 is > 67.6 µM (inactive).

As for `Oc1[nH]c2ccccc2c1C=Nc1ccccc1`, the EC50 is > 67.5 µM (inactive).

`CCOC(=O)c1cnc(SCCc2ccccc2)nc1N`: the EC50 is > 67.5 µM (inactive).

Turning to `Nc1c(-c2cccs2)cnc2c(-c3ccc(F)cc3)cnn12`, the EC50 is > 67.5 µM (inactive).

As for `O=C(Nc1ccn(Cc2ccccc2)n1)c1n[nH]c([N+](=O)[O-])c1Cl`, the EC50 is > 67.5 µM (inactive).

Take `O=C(Nc1ccc(Cl)cn1)c1cc2ccccc2o1`: the EC50 is > 67.5 µM (inactive).

For `c1ccc(CN=C2Nc3ccccc3CS2)nc1`, the EC50 was > 67.5 µM (inactive).

For the compound `COc1cccc(-c2noc(-c3cccs3)n2)c1`, the EC50 is > 67.6 µM (inactive).

For the compound `Cc1cc(C)nc(-n2nc(C)c(Sc3ccc(F)cc3)c2N)n1`, the EC50 is > 67.5 µM (inactive).

In the case of `Cc1cc(-c2ccncc2)n2ncc(-c3ccccc3)c2n1`, the EC50 was > 67.6 µM (inactive).

(Values after PubChem BioAssay AID743059 (The Scripps Research Institute Molecular Screening Center, 2013).)
